Results on two molecules are retold here after patent US20250049931A1, “POLYSARCOSINE-VITAMIN E DERIVATIVES” (POLYPEPTIDE THERAPEUTIC SOLUTIONS, S.L., priority 2021, published 2025).

The nature of data set [1]: Skin permeation studies by Franz diffusion cells. As to conditions: TPGS-Dil and TPSS-Dil micelles 10 mg/mL, 8 h. It counts as in vitro ADME, human. On the procedure: Breast skin samples were obtained from healthy women undergoing plastic surgery after written informed consent (kindly donated by Hospital la Fe, Valencia, Spain). Immediately after excision, the subcutaneous fatty tissue was carefully removed using a scalpel. The skin was cut into 4 cm^2 pieces, wrapped in aluminum foil and stored at −20° C. until use. To reduce inter-individual variability and afford a better comparison of results, skin from only one donor was used in all experiments. Before starting each experiment, the skin was allowed to equilibrate at room temperature (r.t.).
Permeation studies employed the modified Franz diffusion cells (Logan Instruments Corp., EE. UU) with a diffusional area of 0.95 cm^2. […]
Finally, the samples were placed in the optimum cutting temperature (OCT) inclusion medium, and slides of 5 μm were generated via cryostat (version CM1850 UV, Leica, Germany) and samples were analyzed by confocal microscopy.
Images were captured with an inverted DM IRE2 microscope equipped with a λ-blue 40× oil immersion objective and handled with a TCS SP2 system, equipped with an Acoustic Optical Beam Splitter (AOBS). […] Control tissue that follows the same incubation time with MilliQ water was also analyzed to establish the autofluorescence. Dil intensity was quantified five times per sample using Image J software.

In data set [2] the test system is HaCaT cells. The experiment in a line: Cell viability by MTS assay, HaCaT. In kind it is cell-based, human. As to conditions: 72 h, 0.1 to 2.57 μg/mL equivalents of Vitamin E.
Data set [3] deals with human fibroblasts. The experiment in a line: Cell viability by MTS assay, fibroblasts. It counts as cell-based. The note with it: 72 h, 0.1 to 2.57 μg/mL equivalents of Vitamin E. In general terms: Tetrazolium dyes change colour on reduction, which living cells bring about.

As for `CCCCCCCCCCCCCCCCCCN1C(=CC=CC2=[N+](CCCCCCCCCCCCCCCCCC)c3ccccc3C2(C)C)C(C)(C)c2ccccc21.[O-][Cl+3]([O-])([O-])[O-]` [Dil, 1,1′-dioctadecyl-3,3,3′,3′-tetramethylindocarbocyanine perchlorate], the “Dil found in the receptor chamber” value in data set [1] is reported as “any Dil was found in the receptor chamber”.

Regarding `Cc1c(C)c2c(c(C)c1O)CC[C@@](C)(CCC[C@H](C)CCC[C@H](C)CCCC(C)C)O2` [Vitamin E, α-tocopherol], the “cytotoxic effect (cell viability by MTS)” value in data set [2] and in data set [3] was “no cytotoxic effect” each time.
